# Laboratory results published in PMC5430839, “Deciphering the mode of action of cell wall-inhibiting antibiotics using metabolic labeling of growing peptidoglycan in Streptococcus pyogenes” (Scientific Reports, 2017).
# Where two headings read alike, the source gives them in different places.
# What was measured:
# S. pyogenes strain JRS4 [1] = assay: Determination of subbacteriostatic concentrations (growth curve, OD600); type: cell-based, Streptococcus pyogenes; details: minimum dose at which growth curve plateaus at OD600 <1.0 after 4-h incubation at 37 °C, THY, added at OD600 0.4
# Experimental: (§1) S. pyogenes strain JRS4 (M6^+ F1^+) was grown in Todd-Hewitt broth supplemented with 0.3% yeast extract (THY) at 37 °C.
# S. pyogenes were grown in THY to an OD600 of 0.4 (exponential phase) at 37 °C and then added a solution of antibiotic of varying concentration. The culture mixture was further incubated for 4 h at 37 °C. Subbacteriostatic concentration in this study is the minimum dose of antibiotic that makes growth curve reach a plateau at OD600 of <1.0 after the 4-h incubation. In the absence of antibiotics, GAS cells grew up to OD600 of approximately 1.6. Subbacteriostatic concentrations were determined for each antibiotic, and mode-of-action analyses were performed at these concentrations (Figs 2, 3, 4, 5, 6 and 7).
# gram-positive strains = details: ref many studies; cited from earlier work
# S. pyogenes strain JRS4 [2] = assay: Imaging of peripheral growth by FDAA pre-labeling in D-cycloserine/oxacillin-treated cells; type: cell-based, Streptococcus pyogenes; details: FDAA pre-labeling 1 h, then antibiotic 3 h
# Description: The observed enlargement of cells implied that cell wall synthesis could proceed, at least partly, in the presence of these antibiotics at their subbacteriostatic concentrations. We therefore studied the relationship between peripheral growth length and axial length for cells via dual-color staining. Nile red was used to stain the bacterial cell membrane, and the fluorescent D-amino acid (FDAA) labeling[10]–[12] was employed for old cell wall (preexisting prior to antibiotic treatment). In the presence of antibiotic, peripheral growth length was measured as a gap between the old (stained) regions of the preexisting cell wall (Fig. 5A and B).
# Bacterial cells grown in THY to an OD600 of 0.2 (exponential phase) at 37 °C, and 100-μL aliquots of culture mixture were taken (Fig. 5). FDAA solution (final concentration = 1 mM; FL-D-Lys for Fig. 5A and E, tetramethylrhodamine- D-Lys for Fig. 5D) was added, and the mixture was incubated for 1 h at 37 °C in the dark. The mixture was centrifuged (12,000 rpm, 2 min, 4 °C), the supernatant was removed, and the pellet was washed with PBS buffer thrice to remove unreacted FDAA. Cells were re-suspended in 100-μL THY and incubated at 37 °C in the dark with antibiotics for 2.5 h. […]
# S. pyogenes strain JRS4 [3] = assay: Live cell labeling with sortase A substrate in the presence of antibiotics: phenotype and cell size distribution; type: cell-based, Streptococcus pyogenes; details: for cells with one or more completed septa among cells with multiple division sites: n = 55 (CBPV), 114 (flavomycin), 105 (ΔNCBPV) cells
# Description: Streptococcal cell wall synthesis consists of cylindrical peripheral synthesis and septal synthesis (Fig. 1A). A study using Streptococcus pneumoniae illustrated that the serine-threonine kinase StkP controls the switch from peripheral synthesis to septal synthesis. Splitting of the septum (cell separation) is then mediated by the action of autolysin. We labeled the GAS cell wall using the sortase method in the absence of antibiotics, and the observed labeling patterns of GAS were classified into three phenotypes (Fig. 1A–C). Phenotype A cells are newly divided cells without specific fluorescent labeling. Phenotype B cells are in the peripheral growth stage. A characteristic two-elongated-dot image or an open ring corresponds to peripheral growth near the bacterial division site. Phenotype C cells are in the septal growth stage, and the dividing septum is fluorescently stained. The distribution (%) of phenotypes A, B, and C among cells was 37 ± 2, 47 ± 2, and 16 ± 1, respectively, in log-phase GAS. Data represent the mean ± sem (n = 3). Subsequently, we constructed a histogram of each phenotype population as a function of bacterial cell length, as defined in Fig. 1C (orange, Fig. 1D). The subpopulation of cells with a specific phenotype is overlaid on the total cell size distribution (blue). […] The histograms also illustrate that cells grow from phenotype A, through phenotype B, to phenotype C (followed by cell separation), confirming that peripheral growth precedes septal growth in GAS. We speculated that the changes of this histogram would provide information on antibiotic modes of action.
# as §1
# Bacterial cells grown in THY to an OD600 of 0.35–0.4 (exponential phase) at 37 °C were exposed to antibiotics and incubated for 1 h, and 100-μL aliquots of culture mixture were taken and added to a solution of sortase substrate (FL-KLPETG-NH2, final concentration = 1 mM). After incubation for 2.5 h at 37 °C in the dark, Nile Red (10 μg/mL) and DAPI (1 μg/mL) were added. The mixture was allowed to stand for 30 min and then centrifuged (12,000 rpm, 2 min, 4 °C). The supernatant was removed, and the pellet was washed thrice with PBS buffer to remove unreacted sortase substrate. Cells were re-suspended in PBS buffer, mounted on a glass slide, and examined by fluorescent microscopy. Images were analyzed manually using ImageJ software (ver. 1.50). Sets of axial- and equatorial-length were also recorded for each cell. At least 200 cells were analyzed in each analysis. All experiments were performed at least thrice, and representative results are shown.
# [4] = antibiotic at subbacteriostatic conc., mean ± sem, n = 3
# [5] = antibiotic at subbacteriostatic conc.
molecule,measurement,setting,value
Bacitracin,subbacteriostatic concentration,S. pyogenes strain JRS4 [1],4 µg/mL
des-N-methyl-leucyl-vancomycin,antibacterial activity,gram-positive strains,totally loses its antibacterial activity
N[C@@H]1CON=C1O [D-Cycloserine],peripheral growth/axial length relationship (dot blot analysis),S. pyogenes strain JRS4 [2],considerably larger than that of oxacillin-treated cells
same,subbacteriostatic concentration,S. pyogenes strain JRS4 [1],100 µg/mL
same,"proportion of cells, phenotype A (no active cell wall synthesis)",S. pyogenes strain JRS4 [3]; [4],25 ± 6%
same,"proportion of cells, phenotype B (peripheral growth)",S. pyogenes strain JRS4 [3]; [4],68 ± 7%
same,"proportion of cells, phenotype C (septal growth)",S. pyogenes strain JRS4 [3]; [4],2 ± 1%
same,"proportion of cells, phenotype D (multiple septa in an elongated cell)",S. pyogenes strain JRS4 [3]; [4],5 ± 1%
Ramoplanin,subbacteriostatic concentration,S. pyogenes strain JRS4 [1],2 µg/mL
same,"proportion of cells, phenotype A (no active cell wall synthesis)",S. pyogenes strain JRS4 [3]; [4],27 ± 3%
same,"proportion of cells, phenotype B (peripheral growth)",S. pyogenes strain JRS4 [3]; [4],50 ± 4%
same,"proportion of cells, phenotype C (septal growth)",S. pyogenes strain JRS4 [3]; [4],23 ± 5%
Cc1onc(-c2ccccc2)c1C(=O)N[C@@H]1C(=O)N2[C@@H]1SC(C)(C)[C@@H]2C(=O)O [Oxacillin],peripheral growth/axial length relationship (dot blot analysis),S. pyogenes strain JRS4 [2],peripheral growth barely contributed to cell enlargement
same,subbacteriostatic concentration,S. pyogenes strain JRS4 [1],4 µg/mL
same,"proportion of cells, phenotype A (no active cell wall synthesis)",S. pyogenes strain JRS4 [3]; [4],19 ± 4%
same,"proportion of cells, phenotype B (peripheral growth)",S. pyogenes strain JRS4 [3]; [4],60 ± 4%
same,"proportion of cells, phenotype C (septal growth)",S. pyogenes strain JRS4 [3]; [4],12 ± 5%
same,"proportion of cells, phenotype D (multiple septa in an elongated cell)",S. pyogenes strain JRS4 [3]; [4],9 ± 2%
Flavomycin,subbacteriostatic concentration,S. pyogenes strain JRS4 [1],1 µg/mL
same,"proportion of cells, phenotype A (no active cell wall synthesis)",S. pyogenes strain JRS4 [3]; [4],4 ± 1%
same,"proportion of cells, phenotype B (peripheral growth)",S. pyogenes strain JRS4 [3]; [4],20 ± 6%
same,"proportion of cells, phenotype C (septal growth)",S. pyogenes strain JRS4 [3]; [4],22 ± 2%
same,"proportion of cells, phenotype D (multiple septa in an elongated cell)",S. pyogenes strain JRS4 [3]; [4],54 ± 5%
same,cells with one or more completed septa among cells with multiple division sites,S. pyogenes strain JRS4 [3]; [5],98%
chlorobiphenyl vancomycin [CBPV],subbacteriostatic concentration,S. pyogenes strain JRS4 [1],0.25 µg/mL
same,"proportion of cells, phenotype A (no active cell wall synthesis)",S. pyogenes strain JRS4 [3]; [4],20 ± 1%
same,"proportion of cells, phenotype B (peripheral growth)",S. pyogenes strain JRS4 [3]; [4],58 ± 6%
same,"proportion of cells, phenotype C (septal growth)",S. pyogenes strain JRS4 [3]; [4],9 ± 2%
same,"proportion of cells, phenotype D′ (multiple peripheral growth sites, axially elongated)",S. pyogenes strain JRS4 [3]; [4],13 ± 4%
same,cells with one or more completed septa among cells with multiple division sites,S. pyogenes strain JRS4 [3]; [5],4%
des-N-methylleucyl chlorobiphenyl vancomycin [ΔNCBPV],subbacteriostatic concentration,S. pyogenes strain JRS4 [1],3 µg/mL
same,"proportion of cells, phenotype B (peripheral growth)",S. pyogenes strain JRS4 [3],45 ± 12%
same,"proportion of cells, phenotype C (septal growth)",S. pyogenes strain JRS4 [3],17 ± 8%
same,"proportion of cells, phenotype D′ (multiple peripheral growth sites, axially elongated)",S. pyogenes strain JRS4 [3],24 ± 3%
same,"proportion of cells, phenotype A (no active cell wall synthesis)",S. pyogenes strain JRS4 [3]; [4],14 ± 1%
same,cells with one or more completed septa among cells with multiple division sites,S. pyogenes strain JRS4 [3]; [5],52%
Vancomycin,subbacteriostatic concentration,S. pyogenes strain JRS4 [1],4 µg/mL
same,"proportion of cells, phenotype A (no active cell wall synthesis)",S. pyogenes strain JRS4 [3]; [4],34 ± 4%
same,"proportion of cells, phenotype B (peripheral growth)",S. pyogenes strain JRS4 [3]; [4],49 ± 4%
same,"proportion of cells, phenotype C (septal growth)",S. pyogenes strain JRS4 [3]; [4],17 ± 1%
